In patent US4774248A, “Methods of treating depression and depressive states using 5-phenyl-1,4,5,6-tetrahydropyrimidine derivatives” (priority 1985, dated 1988):
“Also recorded” adds a separate entry of the source.

Assays:
male mice = assay: Acute toxicity, intraperitoneal (LD0, LD30, LD60, LD100); type: in vivo; settings: intraperitoneal
Experimental: (§1) The results of toxicological and neuropsychopharmacological tests which were carried out with the products according to the invention have been summarized below. In these tests, solutions of the said products in distilled water were administered intraperitoneally in a volume of 20 ml/kg to male mice and in a volume of 5 ml/kg to male rats.

mice [1] = assay: Overall behavior and reactivities in mice; type: in vivo; settings: i.p.
Procedure, shortened: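 Male mice (20 ml/kg) and male rats (5 ml/kg) dosed intraperitoneally with compound in distilled water.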

[2] = tested on: hypothermia, righting behavior and stereotypies induced by apomorphine; assay: Interaction with apomorphine in mice; type: in vivo
Procedure, shortened: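 Male mice, groups of 6, given test compound intraperitoneally in distilled water (20 ml/kg) 30 min before subcutaneous apomorphine at 1 or 16 mg/kg. Hypothermia, righting behaviour and stereotypies scored.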

[3] = tested on: stereotypies induced by apomorphine; assay: Interaction with apomorphine in rats; type: in vivo; settings: i.p., apomorphine 0.5 mg/kg s.c.
Experimental: as §1
CRL 41 378 is administered to groups of 12 rats 0.5 h before the subcutaneous injection of 0.5 mg/kg of apomorphine.

[4] = tested on: hypothermia and ptosis induced by reserpine; assay: Interaction with reserpine; type: in vivo; settings: mice, i.p.; reserpine 2.5 mg/kg; hydrochloride
Procedure, shortened: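 Reserpine 2.5 mg/kg i.p. given to male mice in groups of 12; test compound dissolved in distilled water and given i.p. (20 ml/kg) four hours later.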

mice [5] = assay: Four plate test; type: in vivo; settings: i.p.
Experimental: as §1
(§2) The test is performed on groups of 10 mice 30 minutes after the administration of CRL 41 378.

mice [6] = assay: Traction; type: in vivo; settings: i.p.
Experimental: as §1, §2

mice [7] = assay: Intergroup aggressiveness; type: in vivo; settings: mice, i.p.
Procedure, shortened: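 Male mice housed 3 weeks per group in cage halves split by an opaque partition; groups of 3 given CRL 41 378 i.p. in distilled water.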

mice [8] = assay: Motility reduced by habituation to the enclosure; type: in vivo; settings: i.p.
Experimental: as §1
After they have stayed in the actimeters for 18 hours, the mice (6 per dose, 12 control animals) receive CRL 41 378. They are immediately returned to their respective enclosures and, half an hour later, their motility is recorded for 30 minutes.

mice [9] = assay: Motility reduced by hypoxic aggression (acute hypobaric anoxia); type: in vivo; settings: i.p., hydrochloride
Experimental: In these tests, solutions of the said products in distilled water were administered intraperitoneally in a volume of 20 ml/kg to male mice and in a volume of 5 ml/kg to male rats.

mice [10] = assay: Asphyxiant anoxia caused by gallamine triiodoethylate; type: in vivo; settings: i.p., gallamine triiodoethylate 32 mg/kg
Experimental: as §1
Groups of 10 mice receive CRL 41 378 30 minutes before the intraperitoneal administration of 32 mg/kg of gallamine triiodoethylate (reference curarizing agent).

[11] = tested on: central nervous system (CNS); assay: Neuropsychopharmacological profile (conclusions of the tests); type: in vivo, mice and rats; settings: i.p.
Experimental: as §1

[12] = tested on: hypothermia induced by apomorphine; assay: Interaction with apomorphine by gastric administration; type: in vivo; settings: Mus musculus, male mice, apomorphine 16 mg/kg s.c., read-out: dose as from which the hypothermia induced by apomorphine is opposed
Experimental: Each test product is administered gastrically to male mice, in a volume of 20 ml/kg, 0.50 h before the subcutaneous injection of 16 mg/kg of apomorphine.

anesthetized dogs [13] = assay: Cardiovascular study in anesthetized dogs; type: in vivo
Experimental: Groups of 2 adult dogs (each weighing 10 to 18 kg), anesthetized with nembutal, receive each test product (i) by intraduodenal administration at successive doses of 0.1 mg/kg, 0.5 mg/kg, 1 mg/kg, 2.5 mg/kg, 5 mg/kb, 10 mg/kg and 20 mg/kg, and then (ii) if appropriate, by intravenous administration at a dose of 10 mg/kg. The effects of 10 μg/kg of isoprenaline and/or 2 μg/kg of norepinephrine after the intraduodenal administration of a cumulative dose of 39.1 mg/kg are also assessed.
The following are measured: the total arterial blood pressure, the diastolic arterial blood pressure, the heart rate, the blood flows through the femoral and cerebral arteries and saphenous veins, the rectal temperature, the skin temperature and the pressure of the gases (essentially O2) dissolved in the arterial blood.

[14] = tested on: trembling and head twitches induced by 5-hydroxytryptophan (5-HTP); assay: Interaction with 5-hydroxytryptophan in association with an MAOI (nialamide); type: in vivo, male mice
Procedure, shortened: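 Male mice (groups of 10) got nialamide 20 mg/kg intragastric at T-18 h, test product i.p. in water at T-0.5 h, then (±)-5-HTP 20 mg/kg i.p. at T. Generalized trembling, partial trembling and head twitches scored yes/no over 2 h.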

anesthetized dogs [15] = assay: Cardiovascular study in anesthetized dogs; type: in vivo; remark: listed apart in the source
[16] = i.p., nialamide + (±)-5-HTP, male mice

Cl.OC1(c2ccccc2)CN=CNC1 (centres unmarked) [CRL 41 382, 5-hydroxy-5-phenyl-1,4,5,6-tetrahydropyrimidine hydrochloride]
LD0 (maximum non-lethal dose) (male mice): greater than 256 mg/kg | LD60 (male mice): ~500 mg/kg | overall behavior and reactivities (mice [1]; 1 mg/kg, 4 mg/kg and 16 mg/kg): no distinct modification of the behavior and reactivities compared with the control animals | overall behavior and reactivities (mice [1]; 64 mg/kg, hydrochloride): sedation for 1 h; also recorded: a decrease in the reactivity to touch and the fear reaction for 0.5 h | minimal effective dose ([2]; Mus musculus, ip, read-out: dose as from which the hypothermia induced by apomorphine is antagonized): ≥ 1 mg/kg | action on righting behavior and stereotypies due to apomorphine ([2]; i.p.): practically no modification of the righting behavior and stereotypies | action on hypothermia induced by apomorphine ([2]; i.p., hydrochloride): as from a dose of 1 mg/kg and especially at doses of 16 to 64 mg/kg, CRL 41 382 opposes the hypothermia induced by apomorphine; also recorded: antagonism of the hypothermia induced by apomorphine, oxotremorine and reserpine in mice | action on stereotypies induced by apomorphine [3]: practically no modification of the stereotypies induced by apomorphine | action on hypothermia induced by reserpine [4]: At doses of 4 mg/kg and 16 mg/kg, CRL 41 382 opposes the hypothermia induced by reserpine; also recorded: At the highest dose used (64 mg/kg), CRL 41 382 has no effect on the hypothermia induced by reserpine; also recorded: antagonism of the hypothermia induced by reserpine no longer appears at the high dose of CRL 41 382 used | action on ptosis induced by reserpine [4]: practically no modification of the ptosis induced by reserpine; also recorded: absence of antagonism of the ptosis induced by reserpine | number of punished passes (mice [5]): practically no modification of the number of punished passes | motor incoordination / incapacity (mice [6]): does not cause major motor incapacity | intergroup aggressiveness (number of fights) (mice [7]): practically no modification of the number of fights | resumption in the motor activity of mice accustomed to their enclosure (mice [8]): does not cause a resumption in the motor activity of mice accustomed to their enclosure | motor recovery after acute hypobaric hypoxia (mice [9]): At doses of 16 mg/kg and 64 mg/kg, CRL 41 382 causes an increase in the motor recovery; also recorded: moderate increase in the motor recovery of mice after acute hypobaric hypoxia | time taken for convulsions and death / lethal effects of gallamine triiodoethylate (mice [10]): practically no modification of the time taken for convulsions and death to occur | antidepressant effects [11]: antidepressant effects appearing as from the lowest doses used | peripheral anticholinergic activity [11]: absence of peripheral anticholinergic activity | sedative effects [11]: sedative effects appearing transiently at the highest doses used (with no detectable decrease in the motor activity) | stimulant effects ([11]; hydrochloride): absence of any motor stimulation; also recorded: absence of stimulant effects | minimal effective dose [12]: ≥ 2 mg/kg | rectal temperature (anesthetized dogs [13]): increases the rectal temperature | skin temperature (anesthetized dogs [13]): decreases the blood flows through the femoral and vertebral arteries and also the skin temperature | α-adrenergic stimulant effect (anesthetized dogs [13]): seems to have an α-adrenergic stimulant effect | arterial blood pressure (anesthetized dogs [13]; intraduodenal): hypertensive | heart rate (anesthetized dogs [13]; intraduodenal): practically no effect on the heart rate | arterial blood pressure (anesthetized dogs [13]; intravenous): hypotensive | heart rate (anesthetized dogs [13]; intravenous): bradycardic | effects of isoprenaline (anesthetized dogs [13]; isoprenaline 10 μg/kg): does not modify the effects of isoprenaline | hypertension induced by norepinephrine (anesthetized dogs [13]; norepinephrine 2 μg/kg): increases the hypertension caused by norepinephrine | analogy with β-adrenergic stimulants in the 5-HTP procedure ([14]; 5-HTP + MAOI): more closely resembles ritodrine or salbutamol | head twitches [14, 16]: practically no modification of the head twitches | partial trembling [14, 16]: moderate potentiation of the partial trembling | blood flows through the femoral and vertebral arteries (anesthetized dogs [15]; intraduodenal): decreases the blood flows through the femoral and vertebral arteries | blood flows through the femoral and vertebral arteries (anesthetized dogs [15]; intravenous): decreases the blood flows through the femoral and vertebral arteries
